Laboratory results as given in US8148493B2, “Method for inhibiting “melanoma inhibitory activity” MIA” (Antisense Pharma GmbH, priority 2002, dated 2012).

Columns and labels:
B16 melanoma cells = experiment: In vivo experimental metastasis assay, B16/C57Bl6 model; details: C57Bl6 mice, B16 cells i.v., peptide 550 μg/mouse every day, 18 days; for size of the lung tumor nodules: control 119.9±9.95; for number of black lung nodules of melanoma: control 193±13
Protocol: To measure the effect of SEQ ID NO: 16 and SEQ ID NO:22 on the metastatic potential of B16 melanoma cells in vivo an experimental metastasis assay was used (Bosserhoff et al., 2001, Melanoma Res. 11, 417-421). Intravenous injections of monodispersed tumor cells (1×10^5 cells per animal) were performed into syngeneic C57BI6 mice (n=12 for every peptide as well as control). Peptides (550 μg/mouse) or PBS was injected every day. After 18 days the mice were sacrificed, the lungs removed, washed in PBS, fixed in formalin and the visible tumor nodules on the surface of the lungs were counted and the tumor areas measured.

MIA = molecular target: T1, MIA (Homo sapiens, UniProt Q16674); experiment: Boyden Chamber assay, melanoma cell invasion with and without MIA; type: cell-based
T1 sequence (Q16674 25-131): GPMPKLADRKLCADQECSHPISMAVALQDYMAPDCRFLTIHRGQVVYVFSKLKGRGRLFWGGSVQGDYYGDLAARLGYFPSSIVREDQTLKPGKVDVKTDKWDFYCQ
Source text: Both in vitro and in vivo MIA expression levels strictly correlate with an highly invasive phenotype (Bosserhoff et al., 1996, J. Biol. Chem. 271, 490-495; Bosserhoff et al., 1999, J. of Pathology 187, 446-454). Further in vivo studies have shown the necessity of MIA for melanoma invasion and metastasis (Bosserhoff et al., 2001, Melanoma Res. 11, 417-421., Guba, et al., 2000, Br. J. Cancer 83, 1216-1222). We therefore aimed to design MIA-inhibitory peptides based on our experiments which identified fibronectin epitopes interacting with MIA (Stoll et al., 2001; EMBO J. 20: 340-349). Peptides derived from fibronectin which were shown previously to cross-react with MIA were tested in Boyden Chamber assays on their effect on melanoma cell invasion with and without MIA. […] In addition we tested several of the peptide sequences derived from phage display screenings and found peptide SEQ ID NO:16 to be a potential interesting candidate for therapeutic MIA-inhibition. […] We then tested the effect of peptides SEQ ID NO:16 and 22 on growth of metastasis in vivo using the B16/C57B16 model.

melanoma cells = experiment: Melanoma (tumor) cell attachment; type: cell-based

Row | Sequence | size of the lung tumor nodules (B16 melanoma cells) | number of black lung nodules of melanoma (B16 melanoma cells) | effect on MIA function (melanoma cell invasion) (MIA) | effect on melanoma/tumor cell attachment (melanoma cells)
1 | ETTIVITWTPAPR (from phage display screening) [SEQ ID NO:22, fibronectin-derived peptide] | 87.15±5.32 | 249±26 | block MIA function | –
2 | NSLLVSWQPPRAR (from phage display screening) [SEQ ID NO:24, fibronectin-derived peptide] | – | – | block MIA function | inhibit also tumor cell attachment
3 | RLTLLVLIMPAP (from phage display screening) [SEQ ID NO:16, do-decapeptide from phage display] | 78.1±5.03 | 198±19 | strongly inhibited | no effect
4 | TSLLISWDAPAVT (from phage display screening) [SEQ ID NO:23, fibronectin-derived peptide] | – | – | block MIA function | inhibit also tumor cell attachment
